Experiments:
DU-145 = assay: Growth inhibition of human DU145 cells incubated for 48 hrs by SRB assay; format: functional; details: DU-145, 48 h; for CC50: read-out: LC50 (the source's name)
[1] = molecular target: T1, 5-hydroxytryptamine receptor 1A (Homo sapiens) (UniProt P08908); assay: Agonist activity at cloned human 5-HT1A receptor transfected in human HeLa cell membranes assessed as stimulation of [35S]GTPgammaS binding preincubated for 20 mins followed by [35S]GTPgammaS addition and measured after 30 mins by liquid scintillation counting; format: functional
T1 sequence (whole entry): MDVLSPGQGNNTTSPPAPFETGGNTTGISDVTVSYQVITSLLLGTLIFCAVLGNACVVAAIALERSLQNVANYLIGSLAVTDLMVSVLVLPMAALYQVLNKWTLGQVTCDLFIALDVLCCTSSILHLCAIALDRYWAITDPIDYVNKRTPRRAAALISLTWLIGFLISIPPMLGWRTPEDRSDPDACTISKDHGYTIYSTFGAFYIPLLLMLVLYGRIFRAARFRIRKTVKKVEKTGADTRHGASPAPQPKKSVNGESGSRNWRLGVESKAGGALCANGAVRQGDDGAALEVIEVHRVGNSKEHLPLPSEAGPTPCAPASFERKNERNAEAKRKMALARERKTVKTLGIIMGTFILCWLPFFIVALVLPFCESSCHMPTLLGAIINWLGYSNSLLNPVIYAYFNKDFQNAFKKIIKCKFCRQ

Fibroblast = assay: (§1) Growth inhibition of human fibroblast cells incubated for 48 hrs by SRB assay; format: cell-based; details: fibroblast, 48 h
[2] = as §1; format: cell-based; details: human fibroblast cells
PC-3 = assay: Growth inhibition of human PC3 cells incubated for 48 hrs by SRB assay; format: functional; details: PC-3, 48 h; for CC50: read-out: LC50 (the source's name)
[3] = molecular target: T2, Alpha-1B adrenergic receptor (Homo sapiens, UniProt P35368); assay: biochemical
T2 sequence (P35368 whole entry): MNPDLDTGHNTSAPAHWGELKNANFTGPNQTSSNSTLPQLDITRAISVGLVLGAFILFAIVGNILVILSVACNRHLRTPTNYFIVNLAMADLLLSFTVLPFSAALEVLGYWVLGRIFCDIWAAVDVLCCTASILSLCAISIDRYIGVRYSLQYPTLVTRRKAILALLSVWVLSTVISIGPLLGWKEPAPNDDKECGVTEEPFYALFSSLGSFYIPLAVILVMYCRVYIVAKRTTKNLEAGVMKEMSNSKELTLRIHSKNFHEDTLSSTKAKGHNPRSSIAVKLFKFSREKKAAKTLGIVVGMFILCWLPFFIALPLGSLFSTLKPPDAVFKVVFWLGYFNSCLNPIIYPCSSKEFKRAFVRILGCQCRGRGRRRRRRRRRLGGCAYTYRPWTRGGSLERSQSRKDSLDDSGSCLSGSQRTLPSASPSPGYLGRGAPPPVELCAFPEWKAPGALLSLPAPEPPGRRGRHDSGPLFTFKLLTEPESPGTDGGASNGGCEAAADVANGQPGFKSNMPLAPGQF
Description: Displacement of [3H]Prazosin from human recombinant alpha 1B adrenergic receptor expressed in CHO cells incubated for 30 mins by radioligand competition binding assay

[4] = molecular target: T3, Alpha-1D adrenergic receptor (Homo sapiens, UniProt P25100); assay: biochemical
T3 sequence (P25100 whole entry): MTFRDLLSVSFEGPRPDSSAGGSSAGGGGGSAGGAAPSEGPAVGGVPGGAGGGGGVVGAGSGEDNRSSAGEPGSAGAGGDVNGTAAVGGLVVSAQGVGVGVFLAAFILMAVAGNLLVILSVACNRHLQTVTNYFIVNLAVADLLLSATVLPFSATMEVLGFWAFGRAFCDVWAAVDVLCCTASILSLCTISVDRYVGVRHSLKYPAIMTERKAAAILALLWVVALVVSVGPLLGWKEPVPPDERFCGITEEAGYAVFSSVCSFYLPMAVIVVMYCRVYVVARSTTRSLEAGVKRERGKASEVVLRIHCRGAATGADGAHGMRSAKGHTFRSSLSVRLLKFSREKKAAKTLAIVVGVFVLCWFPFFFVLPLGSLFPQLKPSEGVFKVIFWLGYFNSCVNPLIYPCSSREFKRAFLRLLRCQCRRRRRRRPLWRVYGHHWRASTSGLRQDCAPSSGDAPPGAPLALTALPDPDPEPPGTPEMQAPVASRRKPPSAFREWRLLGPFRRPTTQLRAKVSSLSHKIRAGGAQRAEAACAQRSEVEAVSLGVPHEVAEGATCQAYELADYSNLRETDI
Description: Displacement of [3H]Prazosin from human recombinant alpha 1D adrenergic receptor expressed in CHO cells incubated for 30 mins by radioligand competition binding assay

[5] = molecular target: T4, 5-hydroxytryptamine receptor 1A (Homo sapiens, UniProt P08908); assay: biochemical
T4 sequence (P08908 whole entry): T1 sequence (whole entry)

[6] = molecular target: T5, Alpha-1A adrenergic receptor (Homo sapiens, UniProt P35348); assay: biochemical
T5 sequence (P35348 whole entry): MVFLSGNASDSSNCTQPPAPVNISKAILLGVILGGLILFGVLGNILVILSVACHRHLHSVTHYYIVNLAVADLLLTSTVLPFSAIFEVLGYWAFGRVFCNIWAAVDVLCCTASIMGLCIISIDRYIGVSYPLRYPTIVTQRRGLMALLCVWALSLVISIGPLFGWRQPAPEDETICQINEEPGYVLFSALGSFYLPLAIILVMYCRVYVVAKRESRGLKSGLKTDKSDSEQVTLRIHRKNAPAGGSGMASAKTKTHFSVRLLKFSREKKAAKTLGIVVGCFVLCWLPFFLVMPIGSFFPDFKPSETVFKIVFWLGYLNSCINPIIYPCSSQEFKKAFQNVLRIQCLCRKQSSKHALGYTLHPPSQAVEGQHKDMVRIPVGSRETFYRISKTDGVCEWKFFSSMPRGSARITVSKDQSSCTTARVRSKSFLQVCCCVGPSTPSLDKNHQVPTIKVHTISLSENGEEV
Description: Displacement of [3H]Prazosin from human recombinant alpha 1A adrenergic receptor expressed in CHO cells incubated for 30 mins by radioligand competition binding assay

[7] = molecular target: T1, 5-hydroxytryptamine receptor 1A (Homo sapiens); assay: Agonist activity at cloned human 5-HT1A receptor transfected in human HeLa cell membranes preincubated for 20 mins followed by [35S]GTPgammaS addition and measured after 30 mins by liquid scintillation counting relative to 8-OH-DPAT; format: functional
[8] = molecular target: T1, 5-hydroxytryptamine receptor 1A (Homo sapiens); details: HeLa
Description: Antagonist activity at cloned human 5-HT1A receptor transfected in human HeLa cell membranes preincubated for 20 mins followed by [35S]GTPgammaS addition and measured after 30 mins by liquid scintillation counting

D(3) dopamine receptor = D(3) dopamine receptor (Homo sapiens, UniProt P35462); assay: Displacement of [3H]N-methylspiperone from human dopamine D3 receptor expressed in HEK293 cell membranes incubated for 1 hr by liquid scintillation counting
Chain of D(3) dopamine receptor (P35462 whole entry): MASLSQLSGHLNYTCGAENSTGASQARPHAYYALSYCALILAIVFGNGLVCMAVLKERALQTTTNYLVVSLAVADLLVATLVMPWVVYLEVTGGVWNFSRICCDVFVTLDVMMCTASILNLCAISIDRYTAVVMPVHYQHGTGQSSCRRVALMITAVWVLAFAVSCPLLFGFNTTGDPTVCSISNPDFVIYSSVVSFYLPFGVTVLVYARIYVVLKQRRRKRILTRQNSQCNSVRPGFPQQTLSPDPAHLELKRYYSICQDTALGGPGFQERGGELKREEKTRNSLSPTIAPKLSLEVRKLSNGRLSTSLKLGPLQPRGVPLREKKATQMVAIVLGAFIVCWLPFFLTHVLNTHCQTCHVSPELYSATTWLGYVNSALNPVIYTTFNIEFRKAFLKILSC

D(4) dopamine receptor = molecular target: T6, D(4) dopamine receptor (Homo sapiens, UniProt P21917); assay: Displacement of [3H]N-methylspiperone from human dopamine D4 receptor expressed in HEK293 cell membranes incubated for 1 hr by liquid scintillation counting
T6 sequence (P21917 whole entry): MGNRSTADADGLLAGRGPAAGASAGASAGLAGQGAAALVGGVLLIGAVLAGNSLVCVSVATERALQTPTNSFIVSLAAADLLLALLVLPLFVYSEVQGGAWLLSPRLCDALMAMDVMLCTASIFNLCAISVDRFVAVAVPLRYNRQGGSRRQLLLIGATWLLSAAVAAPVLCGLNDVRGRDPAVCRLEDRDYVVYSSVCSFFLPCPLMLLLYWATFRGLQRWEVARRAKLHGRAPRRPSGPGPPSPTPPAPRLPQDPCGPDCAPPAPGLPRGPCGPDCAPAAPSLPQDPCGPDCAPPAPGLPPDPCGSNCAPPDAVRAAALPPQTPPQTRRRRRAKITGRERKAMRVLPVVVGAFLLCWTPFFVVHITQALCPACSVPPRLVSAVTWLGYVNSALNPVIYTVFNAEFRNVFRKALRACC

D(2) dopamine receptor = D(2) dopamine receptor (Homo sapiens, UniProt P14416); assay: Displacement of [3H]N-methylspiperone from human dopamine D2 receptor expressed in HEK293 cell membranes incubated for 1 hr by liquid scintillation counting
Chain of D(2) dopamine receptor (P14416 whole entry): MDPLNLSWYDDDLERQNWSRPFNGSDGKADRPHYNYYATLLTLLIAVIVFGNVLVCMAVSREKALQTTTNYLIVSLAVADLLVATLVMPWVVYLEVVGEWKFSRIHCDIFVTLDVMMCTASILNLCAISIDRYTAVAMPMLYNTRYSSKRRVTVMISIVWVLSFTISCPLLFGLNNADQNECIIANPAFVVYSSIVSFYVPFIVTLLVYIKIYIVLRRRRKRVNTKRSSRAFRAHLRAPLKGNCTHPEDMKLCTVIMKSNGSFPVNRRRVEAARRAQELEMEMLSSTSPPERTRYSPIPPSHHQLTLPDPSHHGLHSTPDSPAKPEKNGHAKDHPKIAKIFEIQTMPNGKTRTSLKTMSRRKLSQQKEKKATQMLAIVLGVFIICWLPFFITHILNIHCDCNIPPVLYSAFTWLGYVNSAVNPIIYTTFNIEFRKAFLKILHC

SMILES | Ki [3] | Ki [4] | Ki [5] | Ki [6] | other results
COc1ccccc1OCCNCC1COCC(c2ccccc2)(c2ccccc2)O1 (configuration not stated) |  |  |  |  | GI50 (DU-145): 23000 nM; TGI (DU-145): 42000 nM; CC50 (DU-145): 77000 nM; pD2 [1]: 9.4; LC50 (Fibroblast): > 300000 nM; TGI (Fibroblast): 121600 nM; GI50 at 48 h [2]: 38400 nM; GI50 (PC-3): 26000 nM; TGI (PC-3): 64000 nM; CC50 (PC-3): 157000 nM
c1ccc(OCCNC[C@H]2OCCO[C@@H]2c2ccccc2)cc1 (relative stereo) | > 1000 nM | > 1000 nM | 55 nM | > 1000 nM | 
COc1ccccc1OCCNC[C@H]1OCCO[C@H]1c1ccccc1 (relative stereo) | > 1000 nM | 126 nM | 20.4 nM | > 1000 nM | pD2 [1]: 7.13; Emax [7]: 24.3%
COc1cccc(OC)c1OCCNC[C@H]1OCCO[C@@H]1c1ccccc1 (relative stereo) | > 1000 nM | > 1000 nM | 97.7 nM | > 1000 nM | 
COc1cccc(OC)c1OCCNCC1(c2ccccc2)COCCO1 (configuration not stated) | > 1000 nM | > 1000 nM | > 1000 nM | > 1000 nM | 
COc1ccccc1N1CCN(CC2(c3ccccc3)COCCO2)CC1 (configuration not stated) | > 1000 nM | > 1000 nM | 174 nM | > 1000 nM | 
COc1cccc(OC)c1OCCNC[C@H]1OCCO[C@H]1c1ccccc1 (relative stereo) | > 1000 nM | > 1000 nM | 182 nM | > 1000 nM | 
c1ccc(OCCNCC2OCCOC2(c2ccccc2)c2ccccc2)cc1 (configuration not stated) | > 1000 nM | 316 nM | 28.2 nM | > 1000 nM | pD2 [1]: 6.71; Emax [7]: 32.9%
COc1ccccc1OCCNC[C@H]1OCCO[C@@H]1c1ccccc1 (relative stereo) | > 1000 nM | 95.5 nM | 9.55 nM | > 1000 nM | pKb [8]: 8.2
COc1cccc(OC)c1OCCNCC1OCCOC1(c1ccccc1)c1ccccc1 (configuration not stated) | > 1000 nM | > 1000 nM | 66.1 nM | > 1000 nM | 
COc1ccccc1OCCNCC1(c2ccccc2)COCCO1 (configuration not stated) | > 1000 nM | 69.2 nM | 75.9 nM | > 1000 nM | 
COc1ccccc1N1CCN(C[C@H]2OCCOC2(c2ccccc2)c2ccccc2)CC1 | 380 nM | 89.1 nM | 12 nM | 355 nM | GI50 (DU-145): 35000 nM; TGI (DU-145): 80000 nM; CC50 (DU-145): 180000 nM; LC50 (Fibroblast): > 300000 nM; TGI (Fibroblast): > 300000 nM; GI50 at 48 h [2]: > 300000 nM; GI50 (PC-3): 25000 nM; TGI (PC-3): 78000 nM; CC50 (PC-3): 240000 nM; Ki (D(3) dopamine receptor): 2880 nM; Ki (D(4) dopamine receptor): 9770 nM; Ki (D(2) dopamine receptor): 2190 nM; pKb [8]: 8.14
c1ccc(OCCNC[C@H]2OCCO[C@H]2c2ccccc2)cc1 (relative stereo) | > 1000 nM | > 1000 nM | 214 nM | > 1000 nM | 
c1ccc(OCCNCC2(c3ccccc3)COCCO2)cc1 (configuration not stated) | > 1000 nM | > 1000 nM | 269 nM | > 1000 nM | 
COc1ccccc1N1CCN(CC2COCC(c3ccccc3)(c3ccccc3)O2)CC1 (configuration not stated) | 22.9 nM | 1.74 nM | 5.01 nM | 2.63 nM | pD2 [1]: 7.01; Ki (D(3) dopamine receptor): 257 nM; Ki (D(4) dopamine receptor): 1380 nM; Ki (D(2) dopamine receptor): 112 nM; Emax [7]: 39.3%
COc1ccccc1N1CCN(C[C@H]2OCCO[C@H]2c2ccccc2)CC1 (relative stereo) | > 1000 nM | 191 nM | 70.8 nM | > 1000 nM | 
COc1ccccc1N1CCN(C[C@H]2OCCO[C@@H]2c2ccccc2)CC1 (relative stereo) | > 1000 nM | 53.7 nM | 214 nM | > 1000 nM | 
